Reference: US9062041B2 (Bayer Intellectual Property GmbH, priority 2011, dated 2015)

Key:
Format in all cases: cell-based
[1] = target: EP4 subtype of the human PGE2 receptor (Homo sapiens, UniProt P35408); assay: cAMP antagonism test on the human EP4 receptor (HTRF cAMP detection); conditions: selectivity towards hEP4, IC50 measured by cAMP antagonism test
Procedure, shortened: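 Competitive HTRF cAMP read-out (cAMP-d2 vs Eu-cryptate anti-cAMP antibody, 665/620 nm ratio) on lysed human EP4 cells. Compound (0.8 nM–16.5 μM) applied 20 min at RT before 60 min PGE2 challenge (3× solution 0.3 nM, IBMX present); 20 min lysis precedes reading.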

[2] = target: EP2 subtype of the human PGE2 receptor (Homo sapiens, UniProt P43116); assay: cAMP antagonism test on the human EP2 receptor (HTRF cAMP detection); conditions: hEP2 receptor, read-out: Antagonism hEP2 IC50
EP2 subtype of the human PGE2 receptor, sequence (P43116 whole entry): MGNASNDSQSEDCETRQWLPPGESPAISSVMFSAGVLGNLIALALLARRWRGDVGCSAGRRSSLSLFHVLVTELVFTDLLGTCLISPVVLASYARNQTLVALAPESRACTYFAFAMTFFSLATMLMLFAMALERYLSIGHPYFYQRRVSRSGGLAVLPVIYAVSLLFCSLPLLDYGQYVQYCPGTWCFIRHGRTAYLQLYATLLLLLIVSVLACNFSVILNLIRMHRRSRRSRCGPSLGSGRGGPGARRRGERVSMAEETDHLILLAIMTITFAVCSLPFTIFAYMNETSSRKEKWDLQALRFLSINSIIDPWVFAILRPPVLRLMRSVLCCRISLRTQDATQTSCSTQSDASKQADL
Procedure, shortened: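 Read-out is a competitive HTRF for cAMP: lysate cAMP displaces cAMP-d2 from Eu cryptate-labelled antibody, and antagonism raises the 665/620 nm ratio. Compound (0.8 nM–16.5 μM) added to EP2 cells 20 min at RT before 60 min PGE2 challenge (3× stock 1.5 nM) with IBMX, followed by 20 min lysis.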

human PGD receptor = target: T1, human PGD receptor (Homo sapiens, UniProt Q13258); assay: cAMP antagonism test on the human prostaglandin D receptor (HTRF cAMP detection); conditions: selectivity towards hDP, IC50 measured by cAMP antagonism test
T1 sequence (Q13258 1-359): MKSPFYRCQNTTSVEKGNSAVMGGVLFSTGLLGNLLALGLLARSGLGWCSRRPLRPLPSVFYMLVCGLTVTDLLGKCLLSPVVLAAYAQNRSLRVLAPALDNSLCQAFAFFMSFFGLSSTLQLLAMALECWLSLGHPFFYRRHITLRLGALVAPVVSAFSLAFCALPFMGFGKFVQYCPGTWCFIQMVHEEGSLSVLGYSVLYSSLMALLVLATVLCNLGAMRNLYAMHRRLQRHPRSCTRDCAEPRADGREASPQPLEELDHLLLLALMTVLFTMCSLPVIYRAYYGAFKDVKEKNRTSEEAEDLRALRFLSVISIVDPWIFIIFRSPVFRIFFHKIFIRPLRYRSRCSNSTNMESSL
Procedure, shortened: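 HTRF competition read-out (665/620 nm ratio ×10000), where higher FRET means less cAMP, i.e. antagonism. Compounds (0.8 nM–16.5 μM) were preincubated 20 min at RT with cells and cAMP-d2, PGD2 (3× solution, 6 nM) in IBMX-containing PBS added for 30 min at RT, then cells lysed 20 min.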

EP4 subtype of the human PGE2 receptor, sequence (P35408 whole entry): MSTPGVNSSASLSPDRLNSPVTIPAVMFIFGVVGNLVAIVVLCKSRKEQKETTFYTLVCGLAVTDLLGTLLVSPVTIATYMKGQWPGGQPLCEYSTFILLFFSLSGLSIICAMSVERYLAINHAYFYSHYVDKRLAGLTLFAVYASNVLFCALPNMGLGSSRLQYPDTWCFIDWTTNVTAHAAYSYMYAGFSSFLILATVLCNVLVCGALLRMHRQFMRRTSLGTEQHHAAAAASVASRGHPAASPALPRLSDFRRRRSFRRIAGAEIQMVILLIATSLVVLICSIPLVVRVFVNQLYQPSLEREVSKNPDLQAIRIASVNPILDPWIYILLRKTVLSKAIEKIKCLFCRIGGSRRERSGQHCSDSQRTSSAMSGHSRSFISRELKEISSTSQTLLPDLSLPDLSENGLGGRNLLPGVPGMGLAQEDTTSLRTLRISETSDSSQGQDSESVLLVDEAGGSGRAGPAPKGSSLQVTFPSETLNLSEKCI

Row | SMILES | Selectivity hEP2/hEP4 [1] | IC50 [2] | Selectivity hEP2/hDP (human PGD receptor)
1 | COCCNC(=O)c1ccc2nn(CC3CCN(C(=O)c4ccc(OC)cc4F)CC3)cc2c1C [Example 7, 2-{[1-(2-fluoro-4-methoxybenzoyl)piperidin-4-yl]methyl}-N-(2-methoxyethyl)-4-methyl-2H-indazol-5-carboxamide] | xxx (xxx > 100) | 25.8 nM | xxx (xxx > 100)
2 | Cc1c(C(=O)NCC(F)(F)F)ccc2nn(CC3CN(C(=O)c4ccc(Cl)cc4)C3)cc12 [Example 129, 2-{[1-(4-chlorobenzoyl)azetidin-3-yl]methyl}-4-methyl-N-(2,2,2-trifluoroethyl)-2H-indazol-5-carboxamide] | xx (xx: 10-100) | 309 nM | xx (xx: 10-100)
3 | COCCNC(=O)c1ccc2nn(CC3CCN(C(=O)c4ccc(Oc5ccccc5)cc4)CC3)cc2c1C [Example 19, N-(2-methoxyethyl)-4-methyl-2-{[1-(4-phenoxybenzoyl)-piperidin-4-yl]-methyl}-2H-indazol-5-carboxamide] | xxx (xxx > 100) | 8.57 nM | xxx (xxx > 100)
4 | Cc1c(C(=O)NCC(C)OC2CCC2)ccc2nn(CC3CN(C(=O)c4ccc(Cl)cc4)C3)cc12 (racemic) [Example 154, (+/−)-2-{[1-(4-chlorobenzoyl)azetidin-3-yl]methyl}-N-[2-(cyclobutyloxy)propyl]-4-methyl-2H-indazol-5-carboxamide] | xxx (xxx > 100) | 80.8 nM | xxx (xxx > 100)
5 | COCCNC(=O)c1ccc2nn(CC3CCN(C(=O)c4ccc(Br)cc4F)CC3)cc2c1C [Example 8, 2-{[1-(4-bromo-2-fluorobenzoyl)piperidin-4-yl]methyl}-N-(2-methoxyethyl)-4-methyl-2H-indazol-5-carboxamide] | xxx (xxx > 100) | 9.37 nM | xxx (xxx > 100)
6 | Cc1c(C(=O)NCC2COCCO2)ccc2nn(CC3CN(C(=O)c4ccc(Cl)cc4)C3)cc12 (racemic) [Example 141, (+/−)-2-{[1-(4-chlorobenzoyl)azetidin-3-yl]methyl}-N-(1,4-dioxan-2-ylmethyl)-4-methyl-2H-indazol-5-carboxamide] | xxx (xxx > 100) | 143 nM | xxx (xxx > 100)
7 | Cc1c(C(=O)NCCN2CCOCC2)ccc2nn(CC3CCN(C(=O)c4ccc(-c5ccc(F)cc5)cc4)CC3)cc12 [Example 66, 2-({1-[(4′-fluoro-biphenyl-4-yl)-carbonyl]piperidin-4-yl}methyl)-4-methyl-N-(2-morpholino-ethyl)-2H-indazol-5-carboxamide] | xx (xx: 10-100) | 321 nM | xx (xx: 10-100)
8 | COCCNC(=O)c1ccc2nn(CC3CN(C(=O)c4cc5cc(Cl)ccc5n4C)C3)cc2c1C [Example 171, 2-({1-[(5-chloro-1-methyl-1H-indol-2-yl)carbonyl]azetidin-3-yl}methyl)-N-(2-methoxyethyl)-4-methyl-2H-indazol-5-carboxamide] | xxx (xxx > 100) | 3.88 nM | xxx (xxx > 100)
9 | COCCNC(=O)c1ccc2nn(CC3CCN(C(=O)c4ccc(-c5ccccc5OC(F)(F)F)cc4F)CC3)cc2c1C [Example 46, 2-[(1-{[3-fluoro-2′-(trifluoromethoxy)-biphenyl-4-yl]-carbonyl}piperidin-4-yl)methyl]-N-(2-methoxyethyl)-4-methyl-2H-indazol-5-carboxamide] | xxx (xxx > 100) | 4.91 nM | xxx (xxx > 100)
10 | COCCNC(=O)c1ccc2nn(CC3CCN(C(=O)c4ccccc4OC)CC3)cc2c1C [Example 24, 2-{[1-(2-methoxy-benzoyl)piperidin-4-yl]methyl}-N-(2-methoxyethyl)-4-methyl-2H-indazol-5-carboxamide] | xxx (xxx > 100) | 60.1 nM | xxx (xxx > 100)
11 | Cc1c(C(=O)NCCOCC(F)(F)F)ccc2nn(CC3CCN(C(=O)c4ccc(Cl)cc4)CC3)cc12 [Example 90, 2-{[1-(4-chlorobenzoyl)piperidin-4-yl]methyl}-4-methyl-N-[2-(2,2,2-trifluoro-ethoxy)ethyl]-2H-indazol-5-carboxamide] | xxx (xxx > 100) | 14.8 nM | xxx (xxx > 100)

Results, then the compound that gave them:

Row | Selectivity hEP2/hEP4 [1] | IC50 [2] | Selectivity hEP2/hDP (human PGD receptor) | SMILES
12 | xxx (xxx > 100) | 27.8 nM | xxx (xxx > 100) | Cc1c(C(=O)NCC(F)(F)F)ccc2nn(CC3CCN(C(=O)c4ccc(Oc5ccc(F)c(F)c5)cc4)CC3)cc12 [Example 314, 2-({1-[4-(3,4-difluorophenoxy)benzoyl]piperidin-4-yl}methyl)-4-methyl-N-(2,2,2-trifluoroethyl)-2H-indazol-5-carboxamide]
13 | xx (xx: 10-100) | 806 nM | xx (xx: 10-100) | Cc1c(C(=O)NCC(F)(F)F)ccc2nn(CC3CCN(C(=O)c4ccc(Oc5ccc(C#N)cn5)cc4)CC3)cc12 [Example 310, 2-[(1-{4-[(5-cyanopyridin-2-yl)oxy]benzoyl}piperidin-4-yl)methyl]-4-methyl-N-(2,2,2-trifluoroethyl)-2H-indazol-5-carboxamide]
14 | xxx (xxx > 100) | 11.2 nM | xxx (xxx > 100) | Cc1c(C(=O)NCC2COCCO2)ccc2nn(CC3CCN(C(=O)c4ccc(Oc5ccc(C(F)(F)F)cc5)cc4)CC3)cc12 (racemic) [Example 249, (+/−)-N-(1,4-dioxan-2-ylmethyl)-4-methyl-2-[(1-{4-[4-(trifluoromethyl)phenoxy]benzoyl}piperidin-4-yl)methyl]-2H-indazol-5-carboxamide]
15 | xxx (xxx > 100) | 13.2 nM | xxx (xxx > 100) | O=C(NCCOCC1CC1)c1ccc2nn(CC3CCN(C(=O)c4ccc(-c5ccc(F)cc5)cc4)CC3)cc2c1OC(F)F [Example 231, N-[2-(cyclopropylmethoxy)ethyl]-4-(difluoromethoxy)-2-({1-[(4′-fluorobiphenyl-4-yl)carbonyl]piperidin-4-yl}methyl)-2H-indazol-5-carboxamide]
16 | xxx (xxx > 100) | 27 nM | xxx (xxx > 100) | Cc1c(C(=O)NCC2CCCCO2)ccc2nn(CC3CCN(C(=O)c4ccc(Cl)cc4)CC3)cc12 (racemic) [Example 239, (+/−)-2-{[1-(4-chlorobenzoyl)piperidin-4-yl]methyl}-4-methyl-N-(3,4,5,6-tetrahydro-2H-pyran-2-ylmethyl)-2H-indazol-5-carboxamide]
17 | xxx (xxx > 100) | 15.1 nM | xxx (xxx > 100) | COCCNC(=O)c1ccc2nn(CC3CCN(C(=O)c4ccc(OC(C)C)cc4F)CC3)cc2c1C [Example 362, 2-{[1-(2-fluoro-4-isopropoxybenzoyl)piperidin-4-yl]methyl}-N-(2-methoxy-ethyl)-4-methyl-2H-indazol-5-carboxamide]
18 | xxx (xxx > 100) | 5.87 nM | xxx (xxx > 100) | COCCNC(=O)c1ccc2nn(CC3CCN(C(=O)c4ncc(-c5ccccc5)o4)CC3)cc2c1C [Example 354, N-(2-methoxyethyl)-4-methyl-2-({1-[(5-phenyloxazol-2-yl)carbonyl]piperidin-4-yl}methyl)-2H-indazol-5-carboxamide]
19 | xxx (xxx > 100) | 66 nM | xxx (xxx > 100) | Cc1c(C(=O)NCC(F)(F)F)ccc2nn(CC3CCN(C(=O)c4ncc(-c5ccccc5)o4)CC3)cc12 [Example 309, 4-methyl-2-({1-[(5-phenyloxazol-2-yl)carbonyl]piperidin-4-yl}methyl)-N-(2,2,2-trifluoroethyl)-2H-indazol-5-carboxamide]
20 | xxx (xxx > 100) | 9.03 nM | xxx (xxx > 100) | Cc1c(C(=O)NCC2CCCCO2)ccc2nn(CC3CCN(C(=O)c4ccc(Cl)cc4)CC3)cc12 (single isomer, unassigned) [Example 241, (S or R)-2-{[1-(4-chlorobenzoyl)piperidin-4-yl]methyl}-4-methyl-N-(3,4,5,6-tetrahydro-2H-pyran-2-ylmethyl)-2H-indazol-5-carboxamide]
21 | xxx (xxx > 100) | 40.7 nM | xxx (xxx > 100) | COCCNC(=O)c1ccc2nn(CC3CCN(C(=O)c4ccc(-c5ccc(OC)cn5)cc4)CC3)cc2c1C [Example 373, N-(2-methoxyethyl)-2-({1-[4-(5-methoxypyridin-2-yl)benzoyl]piperidin-4-yl}-methyl)-4-methyl-2H-indazol-5-carboxamide]
